The text below walks through data of patent US20260256752A1, “HIGHLY WATER SOLUBLE SCHIFF BASE PRODRUGS OF BENZALDEHYDE ALLOSTERIC MODULATORS” (ILLEXCOR HOLDINGS, LLC, priority 2022, published 2026).

The subject of series [1] is blood suspensions from humans with homozygous SCD. Nature of the series: Oxygen-independent sickle inhibition under anoxia (100% nitrogen) in SS blood suspensions. In kind it is cell-based, human. As to the method: All compounds (Comp 1-13) and comparator molecules (VZHE-039, PP-14, INN-310, and Voxelotor) were evaluated following established procedures (Abdulmalik et al., 2005, 2020; Pagare et al., 2020). Blood samples from individual donors with homozygous SCD (obtained with informed consent) were diluted using Hemox buffer solution with the addition of glucose (10 mM) and BSA (0.2%) to adjust hematocrit of the blood suspensions to 20%, which standardizes the procedure to normalize the ratio of RBCs to drug, for assay consistency and reproducibility. Briefly, blood suspensions were incubated under room air in the presence of various concentrations of test compounds (0-2 mM) at 37° C. for 1 hour in 96-well round bottom plates. Subsequently, the suspensions were incubated with a hypoxic gas mixture (2.5% Oxygen gas/balance Nitrogen gas) at 37° C. for up to 2 hours prior to fixation with 2% glutaraldehyde solution without exposure to air. The fixated blood aliquots were evaluated by microscopic morphological analysis (image analysis on Image J software) to identify the proportion of sickled and non-sickled RBCs, and sickle inhibition calculated based on the % change from negative control (DMSO).
To establish oxygen-independent sickle inhibition, the incubation chamber was subsequently opened and exposed to room air for 15 minutes to ensure complete re-oxygenation and reversal of the sickled cells to normal round cells. Reversal was confirmed by microscopy. The incubation chamber was then closed, and the assay was repeated with incubation in 100% nitrogen gas for 1 hour (for screening), or up to 2.5 h (for time-course studies), with collection and fixation of blood aliquots at defined intervals. Aliquot samples were again subjected to microscopic morphological analysis of bright field images to identify the proportion of sickled and non-sickled cells, and sickle inhibition calculated.

The target in series [2] is T1, Hb (Homo sapiens, UniProt P69905).
T1 construct: as separate independent studies with non-sickle blood; from tissue; host or cells: non-sickling AA blood (red blood cells)
Put plainly: Occupancy/dose-dependent p50 shift in human non-sickle blood. It is filed as biochemical. To be noted: compared to Voxelotor at equivalent drug-Hb occupancy levels. As to the method: Non-sickling human blood was incubated with test compounds at 0.25-2 mM concentrations at 37° C. for 1 hour in 96-well round bottom plates. At conclusion, RBCs were washed once with PBS, followed by lysis with deionized water. Approximately 100 μl aliquots of individual lysates were added to 3 mL of 0.1M potassium phosphate buffer, pH 7.0 in a cuvette and subjected to hemoximetry analysis using a Hemox™ Analyzer (TCS Scientific Corp.) as previously described. (Abdulmalik et al., 2020; Pagare et al., 2020) Change in p50 values (Δp50) was calculated by subtracting the p50 values of treated samples from the value of the control sample and expressing the difference as a percentage of control p50 values.

The nature of series [3]: Single-dose oral pharmacokinetics in rats. It is filed as in vivo, male Sprague Dawley (SD) rats. To be noted: rat whole blood; single oral dose 100 mg/kg. As to the method:
Single-dose pharmacokinetics (PK) in male Sprague Dawley (SD) rats (n=4) were assessed for each compound, and the maximum or peak whole blood concentration and area under the curve are shown in Table 5.
Single doses of each compound were administered as oral suspensions by gavage in 0.5% carboxy methylcellulose at 100 mg/kg. Whole blood levels were collected for at least 72 hours after dose administration. Bioanalyses were performed with liquid chromatography-tandem mass spectrometry […].

Series [4] is described as follows: 14-day repeat-dose oral pharmacokinetics in rats. In kind it is in vivo, male and female SD rats. To be noted: oral 100 mg/kg for 14 days, Day 14. As to the method:
(§1) Repeat oral doses of each compound were administered by oral gavage for 14 days to male and female SD rats (n=3). […] Steady state exposures for the final dosing interval on Day 14 were similar to total compound exposure from single-dose PK.
(§2) Repeat doses of each compound were administered once daily as oral suspensions by gavage in 0.5% carboxy methylcellulose for 14 days at 100 mg/kg. Whole blood was collected at 7 time-points for up to 24 hours during the final dosing interval on Day 14. Clinical observations, body weights, and food consumption were recorded throughout the 14 day study. Clinical chemistry and hematologic parameters were assessed, and histopathology was performed on organs after 14 days of exposure to study drug.

A short description of series [5]: 14-day repeat-dose safety (clinical observations, histopathology) in rats. It is filed as in vivo, male and female SD rats. To be noted: for safety in non-clinical toxicology (in words): above anticipated therapeutic drug levels; for clinical or histopathologic changes after 14 days of exposure: rats, oral 100 mg/kg once daily for 14 days. As to the method:
as §1, §2

The nature of series [6]: ADME / bioavailability assessment.
For series [7] the following is noted: most patients with SCD; cited from earlier work.
The mark [8] stands for this setting: female rats, read-out: Cmax [μM] female.
Where [9] appears, read: male rats, read-out: Cmax [μM] male.

“Also recorded” adds a separate entry of the source.

T1 sequence (P69905 2-142 limits assumed): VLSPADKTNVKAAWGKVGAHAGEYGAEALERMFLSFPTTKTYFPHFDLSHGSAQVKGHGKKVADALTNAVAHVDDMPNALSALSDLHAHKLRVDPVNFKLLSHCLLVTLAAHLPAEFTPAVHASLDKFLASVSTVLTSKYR
T1 sequence (P68871 2-147 partner limits assumed): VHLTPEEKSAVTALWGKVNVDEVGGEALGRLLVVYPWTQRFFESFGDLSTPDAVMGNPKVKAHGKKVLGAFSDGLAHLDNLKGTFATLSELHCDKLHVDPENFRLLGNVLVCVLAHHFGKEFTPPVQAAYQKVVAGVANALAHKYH

Broadly, the Cmax is the maximum level reached in the sampled fluid or tissue. Regarding `O=Cc1c(O)cccc1OCc1cccnc1` [Comp 1, 2-hydroxy-6-(pyridin-3-ylmethoxy)benzaldehyde], the “polymer destabilizing effects / sickle inhibition in anoxia (in words)” value in series [1] is “most potent polymer destabilizers discovered to date; also recorded: most potent and sustained polymer destabilizing effects observed to date”. In addition, in series [2], the “changes in p50 of Hb in human blood (in words)” value (“changes in p50 of Hb” for short) is on record as “relatively weak changes in p50”. Also, in series [3], the “AUC0-∞ [μM*h]” value is on record as 17,415 μM*h and the Cmax was 919 µM. Also, in series [4] (female rats), the “AUC0-∞ [μM*h] female” value was 8,085 μM*h. In series [4] (setting [8]), the Cmax was found to be 534 µM. The “AUC0-∞ [μM*h] male” value in series [4] (male rats) is reported as 10,490 μM*h. Also, the Cmax in series [4] (setting [9]) was found to be 703 µM. In series [5], the “safety in non-clinical toxicology (in words)” value is “without hepatotoxicity” and the “clinical or histopathologic changes after 14 days of exposure” value (“clinical or histopathologic changes” for short) is listed as “No clinical or histopathologic changes”. The “absorption, distribution, metabolism and elimination (ADME) properties (in words)” value (“absorption, distribution” for short) in series [6] is “acceptable absorption, distribution, metabolism and elimination (ADME) properties without metabolic lability”.
With `O=Cc1c(O)cccc1OCc1ccccn1` [Comp 2, 2-hydroxy-6-(pyridin-2-ylmethoxy)benzaldehyde], the “polymer destabilizing effects / sickle inhibition in anoxia (in words)” value in series [1] was “most potent polymer destabilizers discovered to date; also recorded: most potent and sustained polymer destabilizing effects observed to date”. Moreover, the “changes in p50 of Hb” value in series [2] is “relatively weak changes in p50”. Moreover, in series [3], the “AUC0-∞ [μM*h]” value is 19,822 μM*h and the concentration peaked (Cmax) at 958 µM. Further, in series [4] (female rats), the “AUC0-∞ [μM*h] female” value is 21,547 μM*h and the “Cmax (ng/ml) female” value is listed as 254,382 ng/ml. The peak concentration (Cmax) in series [4] (setting [8]) is 1110 µM. Further, in series [4] (male rats), the “AUC0-∞ [μM*h] male” value is 20,363 μM*h. Moreover, the highest concentration (Cmax) in series [4] (setting [9]) was 1110 µM. In series [5], the “safety in non-clinical toxicology (in words)” value is given as “without hepatotoxicity” and the “clinical or histopathologic changes” value is recorded as “No clinical or histopathologic changes”. For the same molecule, in series [6], the “absorption, distribution” value was “acceptable absorption, distribution, metabolism and elimination (ADME) properties without metabolic lability”.
On to `O=Cc1c(O)cccc1OCc1cncc(F)c1` [Comp 4, 2-((5-fluoropyridin-3-yl)methoxy)-6-hydroxybenzaldehyde], for which, in series [3], the “AUC0-∞ [μM*h]” value was 3,360 μM*h and the concentration peaked (Cmax) at 242 µM.
Turning to `O=Cc1c(O)cccc1OCc1ncccc1F` [Comp 5, 2-((3-fluoropyridin-2-yl)methoxy)-6-hydroxybenzaldehyde], the “changes in p50 of Hb” value in series [2] is “relatively weak changes in p50”. In series [3], the “AUC0-∞ [μM*h]” value is given as 12,047 μM*h and the concentration peaked (Cmax) at 348 µM. Further, the “AUC0-∞ [μM*h] female” value in series [4] (female rats) is reported as 20,566 μM*h. The Cmax in series [4] (setting [8]) is 993 µM. Further, the “AUC0-∞ [μM*h] male” value in series [4] (male rats) is on record as 17,073 μM*h. Besides, the Cmax in series [4] (setting [9]) turned out to be 854 µM. Further, in series [5], the “safety in non-clinical toxicology (in words)” value was “without hepatotoxicity” and the “clinical or histopathologic changes” value is on record as “No clinical or histopathologic changes”. The “absorption, distribution” value in series [6] was “acceptable absorption, distribution, metabolism and elimination (ADME) properties without metabolic lability”.
Take `O=Cc1c(O)cccc1OCc1cccnc1F` [Comp 6, 2-((2-fluoropyridin-3-yl)methoxy)-6-hydroxybenzaldehyde]: in series [3], the “AUC0-∞” value worked out at 728 µM·h and the peak level (Cmax) was 49 µM.
`O=Cc1c(O)cccc1OCc1ncccc1Cl` [Comp 8, 2-((3-chloropyridin-2-yl)methoxy)-6-hydroxybenzaldehyde]: in series [3], the “AUC0-∞ [μM*h]” value is on record as 1,022 μM*h and the Cmax was 76 µM.
Take `O=Cc1c(F)cc(F)cc1OCc1ccccn1` [Comp 9, 2,4-difluoro-6-(pyridin-2-ylmethoxy)benzaldehyde]: the “polymer destabilizing effects / sickle inhibition in anoxia (in words)” value in series [1] is “completely negates the polymer destabilization effects”.
Turning to `O=Cc1c(O)cccc1OCc1cncnc1` [Comp 10, 2-hydroxy-6-(pyrimidin-5-ylmethoxy)benzaldehyde], in series [3], the “AUC0-∞ [μM*h]” value was 3,011 μM*h and the concentration peaked (Cmax) at 157 µM.
Turning to `O=Cc1c(OCc2cccnc2)ccc(F)c1O` [Comp 12, 3-fluoro-2-hydroxy-6-(pyridin-3-ylmethoxy)benzaldehyde], the “polymer destabilizing effects / sickle inhibition in anoxia (in words)” value in series [1] is “significantly reduced the potency of polymer inhibition”.
Regarding `O=Cc1c(F)cc(F)cc1OCc1ncccc1F` [Comp 13, 2,4-difluoro-6-((3-fluoropyridin-2-yl)methoxy)benzaldehyde], in series [1], the “polymer destabilizing effects / sickle inhibition in anoxia (in words)” value is reported as “completely negates the polymer destabilization effects”.
The same measure, in the same setting: the entry for `COc1ccc(OCc2ccccn2)c(C=O)c1` [INN-310, reference compound] is “only weak potency in anoxia”.
As to `O=Cc1c(O)cccc1OCc1ccccc1` [Reference A, 2-(benzyloxy)-6-hydroxybenzaldehyde, reference compound], the “polymer destabilizing effects / sickle inhibition in anoxia (in words)” value in series [1] is on record as “exhibits potent polymer destabilizing effects”. In series [6], the “bioavailability (in words)” value was “not bioavailable”.
Take `O=Cc1c(O)cccc1OCc1cccc(CO)n1` [VZHE-039, reference compound]: the “AUC0-∞ [μM*h]” value in series [3] was 8,782 μM*h. For the same molecule, the Cmax turned out to be 394 µM in series [3], 894 µM in series [4] (setting [8]) and 753 µM in series [4] (setting [9]). Further, the “AUC0-∞ [μM*h] female” value in series [4] (female rats) is 12,188 μM*h. Besides, the “AUC0-∞ [μM*h] male” value in series [4] (male rats) was 11,585 μM*h. Further, the “clinical or histopathologic changes” value in series [5] was “Both clinical and histopathologic changes in the liver, including hepatocyte necrosis”.
For `CC(C)n1nccc1-c1ncccc1COc1cccc(O)c1C=O` [Voxelotor, reference compound], in series [1], the “polymer destabilizing effects / sickle inhibition in anoxia (in words)” value is recorded as “did not demonstrate any sickle inhibition”. Moreover, the “AUC0-∞ [μM*h] female” value in series [4] (female rats) was 7,617 μM*h. The Cmax in series [4] (setting [8]) came out at 548 µM; in series [4] (setting [9]), 422 µM. The “AUC0-∞ [μM*h] male” value in series [4] (male rats) is 6,760 μM*h. The “increase in Hb concentrations” value in series [7] is listed as “at least 1 g/dl”.
